Assay results: patent US11078228B2, “Ectonucleotidase inhibitors and methods of use thereof” (Calithera Biosciences, Inc., priority 2018, dated 2021)

What follows are molecules tested against recombinant CD73 (Homo sapiens (Human), UniProt P21589) (assay: Assay 2: Inhibition of the CD73 enzyme in vitro (0.05 nM CD73, 1 hour 37° C., Malachite Green)). Conditions: 0.05 nM CD73, 50 μM AMP, 1 hour at 37° C.
Sequence of recombinant CD73 (P21589 27-547): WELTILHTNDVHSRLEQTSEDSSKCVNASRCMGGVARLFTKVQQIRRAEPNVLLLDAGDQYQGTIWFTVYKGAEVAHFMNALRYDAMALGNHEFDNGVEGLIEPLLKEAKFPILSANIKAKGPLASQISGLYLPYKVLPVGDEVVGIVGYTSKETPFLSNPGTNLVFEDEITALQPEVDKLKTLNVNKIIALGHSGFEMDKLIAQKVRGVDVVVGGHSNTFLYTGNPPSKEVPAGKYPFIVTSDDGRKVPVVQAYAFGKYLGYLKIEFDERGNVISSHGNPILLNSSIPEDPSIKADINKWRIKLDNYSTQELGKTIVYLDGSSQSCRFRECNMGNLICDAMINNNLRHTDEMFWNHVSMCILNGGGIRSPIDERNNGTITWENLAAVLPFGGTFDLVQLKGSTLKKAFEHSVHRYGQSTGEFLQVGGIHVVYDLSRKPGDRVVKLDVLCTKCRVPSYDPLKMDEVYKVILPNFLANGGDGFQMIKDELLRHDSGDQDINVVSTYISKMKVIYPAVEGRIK
Assay type: biochemical
Method: For measurements of soluble CD73 enzyme activity, recombinant CD73 was obtained from R&D Systems, Cat. No. 5795-EN-010. […] Reactions were allowed to proceed for 1 hour at 37° C. before the addition of 100 μL Malachite Green (Cell Signaling Technology, Cat. No. 12776). After 5 minutes at room temperature, absorbance at 630 nm was determined on a microplate spectrophotometer. The concentration of inorganic phosphate was determined using a phosphate standard curve.
For `C#C[C@@]1(O)[C@@H](COC(Cc2ccccc2)(C(=O)O)C(=O)O)O[C@@H](n2cnc3c(N(CC)CC)nc(Cl)nc32)[C@@H]1O` [Example 96, 2-benzyl-2-(((2R,3S,4R,5R)-5-(2-chloro-6-(diethylamino)-9H-purin-9-yl)-3-ethynyl-3,4-dihydroxytetrahydrofuran-2-yl)methoxy)malonic acid], the IC50 was 3 nM. In the case of `C#C[C@@]1(O)[C@@H](COC(Cc2ccccc2)(C(=O)O)C(=O)O)O[C@@H](n2cnc3ccc(Cl)nc32)[C@@H]1O` [Example 58, 2-benzyl-2-(((2R,3S,4R,5R)-5-(5-chloro-3H-imidazo[4,5-b]pyridin-3-yl)-3-ethynyl-3,4-dihydroxytetrahydrofuran-2-yl)methoxy)malonic acid], the IC50 is reported as 1.6 nM. `C#C[C@@]1(O)[C@@H](COC(Cc2ccccc2)(C(=O)O)C(=O)O)O[C@@H](n2cnc3c(N4CC[C@H](CO)C4)nc(Cl)nc32)[C@@H]1O` [Example 101, 2-benzyl-2-(((2R,3S,4R,5R)-5-(2-chloro-6-((S)-3-(hydroxymethyl)-pyrrolidin-1-yl)-9H-purin-9-yl)-3-ethynyl-3,4-dihydroxytetrahydrofuran-2-yl)methoxy)malonic acid] gave an IC50 of 1 nM. `C#C[C@@]1(O)[C@@H](COC(CC)(C(=O)O)C(=O)O)O[C@@H](n2cnc3c(N)nc(Cl)nc32)[C@@H]1O` [Example 16, 2-(((2R,3S,4R,5R)-5-(6-amino-2-chloro-9H-purin-9-yl)-3-ethynyl-3,4-dihydroxytetrahydrofuran-2-yl)methoxy)-2-ethylmalonic acid] was tested, and the IC50 was 24 nM. `C#C[C@@]1(O)[C@@H](COC(Cc2ccc(N3CCCN(CCC)C3=O)cc2)(C(=O)O)C(=O)O)O[C@@H](n2cnc3c(N)nc(Cl)nc32)[C@@H]1O` [Example 152, 2-(((2R,3S,4R,5R)-5-(6-amino-2-chloro-9H-purin-9-yl)-3-ethynyl-3,4-dihydroxytetrahydrofuran-2-yl)methoxy)-2-(4-(2-oxo-3-propyltetrahydropyrimidin-1 (2H)-yl)benzyl)malonic acid] gave an IC50 of 0.05 nM. `C#C[C@@]1(O)[C@@H](COC(Cc2ccccc2)(C(=O)O)C(=O)O)O[C@@H](n2cnc3c(N[C@H](C)CO)nc(Cl)nc32)[C@@H]1O` [Example 98, 2-benzyl-2-(((2R,3S,4R,5R)-5-(2-chloro-6-(((R)-1-hydroxypropan-2-yl)amino)-9H-purin-9-yl)-3-ethynyl-3,4-dihydroxytetrahydrofuran-2-yl)methoxy)malonic acid] was tested, and the IC50 was 2 nM. `C#C[C@@]1(O)[C@@H](COC(Cc2ccc(N3CCN(C)CC3=O)cc2)(C(=O)O)C(=O)O)O[C@@H](n2cnc3c(N)nc(Cl)nc32)[C@@H]1O` [Example 154, 2-(((2R,3S,4R,5R)-5-(6-amino-2-chloro-9H-purin-9-yl)-3-ethynyl-3,4-dihydroxytetrahydrofuran-2-yl)methoxy)-2-(4-(4-methyl-2-oxopiperazin-1-yl)benzyl)malonic acid] showed an IC50 of 2 nM. `C#C[C@@]1(O)[C@@H](COC(Cc2ccccc2)(C(=O)O)C(=O)O)O[C@@H](n2cnc3c(N(C)C)nc(Cl)nc32)[C@@H]1O` [Example 31, 2-benzyl-2-(((2R,3S,4R,5R)-5-(2-chloro-6-(dimethylamino)-9H-purin-9-yl)-3-ethynyl-3,4-dihydroxytetrahydrofuran-2-yl)methoxy)malonic acid] gave an IC50 of 2 nM. `C#C[C@@]1(O)[C@@H](COC(Cc2cncs2)(C(=O)O)C(=O)O)O[C@@H](n2cnc3c(N)nc(Cl)nc32)[C@@H]1O` [Example 143, 2-(((2R,3S,4R,5R)-5-(6-amino-2-chloro-9H-purin-9-yl)-3-ethynyl-3,4-dihydroxytetrahydrofuran-2-yl)methoxy)-2-(thiazol-5-ylmethyl)malonic acid] showed an IC50 of 13 nM. Work on `C#C[C@@]1(O)[C@@H](CO[C@H](Cc2ccc(N3CCCNC3=O)cc2)C(=O)O)O[C@@H](n2cnc3c(N)nc(Cl)nc32)[C@@H]1O` (single isomer, unassigned) [Example 166] yielded an IC50 of 145 nM. `C#C[C@@]1(O)[C@@H](COC(Cc2ccc(-c3cccn(CCO)c3=O)cc2)(C(=O)O)C(=O)O)O[C@@H](n2cnc3c(NC(C)C)nc(Cl)nc32)[C@@H]1O` [Example 153, 2-(((2R,3S,4R,5R)-5-(2-chloro-6-(isopropylamino)-9H-purin-9-yl)-3-ethynyl-3,4-dihydroxytetrahydrofuran-2-yl)methoxy)-2-(4-(1-(2-hydroxyethyl)-2-oxo-1,2-dihydropyridin-3-yl)benzyl)malonic acid] gave an IC50 of 0.48 nM. For `C#C[C@@]1(O)[C@@H](COC(Cc2ccccc2)(C(=O)O)C(=O)O)O[C@@H](n2cnc3c(-c4cccs4)nc(Cl)nc32)[C@@H]1O` [Example 18, 2-benzyl-2-(((2R,3S,4R,5R)-5-(2-chloro-6-(thiophen-2-yl)-9H-purin-9-yl)-3-ethynyl-3,4-dihydroxytetrahydrofuran-2-yl)methoxy)malonic acid], the IC50 was 0.3 nM. Work on `C#C[C@@]1(O)[C@@H](CO[C@@](Cc2ccc(N3CCCNC3=O)cc2)(C(=O)O)C(=O)OCC)O[C@@H](n2cnc3c(N)nc(Cl)nc32)[C@@H]1O` (single isomer, unassigned) [Example 165] yielded an IC50 of 45 nM. In the case of `C#C[C@@]1(O)[C@@H](COC(Cc2ccccc2)(C(=O)O)C(=O)O)O[C@@H](n2cnc3c(N4CCC[C@@H]4CO)nc(Cl)nc32)[C@@H]1O` [Example 103, 2-benzyl-2-(((2R,3S,4R,5R)-5-(2-chloro-6-((R)-2-(hydroxymethyl)-pyrrolidin-1-yl)-9H-purin-9-yl)-3-ethynyl-3,4-dihydroxytetrahydrofuran-2-yl)methoxy)malonic acid], the IC50 is reported as 3 nM. Molecule `C#C[C@@]1(O)[C@@H](COC(Cc2ccccc2)(C(=O)O)C(=O)O)O[C@@H](n2cnc3c(NO)nc(Cl)nc32)[C@@H]1O` [Example 168, 2-benzyl-2-(((2R,3S,4R,5R)-5-(2-chloro-6-(hydroxyamino)-9H-purin-9-yl)-3-ethynyl-3,4-dihydroxytetrahydrofuran-2-yl)methoxy)malonic acid] has an IC50 of 14 nM. `C#C[C@@]1(O)[C@@H](COC(Cc2ccc(-c3cccn(CC)c3=O)cc2)(C(=O)O)C(=O)O)O[C@@H](n2cnc3c(N)nc(Cl)nc32)[C@@H]1O` [Example 20, 2-(((2R,3S,4R,5R)-5-(6-amino-2-chloro-9H-purin-9-yl)-3-ethynyl-3,4-dihydroxytetrahydrofuran-2-yl)methoxy)-2-(4-(1-ethyl-2-oxo-1,2-dihydropyridin-3-yl)benzyl)malonic acid] was tested, and the IC50 was 0.2 nM. With `C#C[C@@]1(O)[C@@H](COC(Cc2ccc(-c3cccn(CCO)c3=O)cc2)(C(=O)O)C(=O)O)O[C@@H](n2cnc3c(N)nc(Cl)nc32)[C@@H]1O` [Example 21, 2-(((2R,3S,4R,5R)-5-(6-amino-2-chloro-9H-purin-9-yl)-3-ethynyl-3,4-dihydroxytetrahydrofuran-2-yl)methoxy)-2-(4-(1-(2-hydroxyethyl)-2-oxo-1,2-dihydropyridin-3-yl)benzyl)malonic acid] the IC50 was 0.3 nM. `C#C[C@@]1(O)[C@@H](COC(Cc2ccccc2)(C(=O)O)C(=O)O)O[C@@H](n2cnc3c(NCCOC)nc(Cl)nc32)[C@@H]1O` [Example 38, 2-benzyl-2-(((2R,3S,4R,5R)-5-(2-chloro-6-((2-methoxyethyl)amino)-9H-purin-9-yl)-3-ethynyl-3,4-dihydroxytetrahydrofuran-2-yl)methoxy)malonic acid] was tested, and the IC50 was 3 nM.
